Test results reported in US6737428B2, “BIS hydrochloride monohydrate salt of RSV fusion inhibitor” (Bristol-Myers Squibb Company, priority 2001, dated 2004).
pEC50: −log10 of the molar value. Like-named read-outs stand apart in the source and are kept apart here. One block for each compound: values may come before it.

Key:
[1] = acid used as salt former; cited from earlier work
[2] = tested on: respiratory syncytial virus Long strain; assay: Antiviral activity against respiratory syncytial virus in HEp-2 cells (MTT cell protection); format: cell-based; details: for pEC50: human respiratory syncytial virus, read-out: EC50 (concentration that produces 50% cell protection)
Description: The antiviral activity of these compounds against respiratory syncytial virus was determined in HEp-2 (ATCC CCL 23) cells that were seeded in 96 well microtiter plates at 1.5×10^4 cells/100 μL/well in DMEM (Dulbecco's Modified Eagle's Medium) supplemented with penicillin, streptomycin, glutamine, and 10% fetal bovine serum. The cells were incubated overnight at 37° C., the culture medium was removed, and cells were infected (100 μL volume in medium containing 2% fetal bovine serum) with respiratory syncytial virus Long strain at 5000 plaque forming units/mL. The compounds, 100 μL at appropriate dilution, were added to the cells 1 hour post infection. After incubation for 4 days at 37° C., the plates were stained with MTT solution (3-[4,5-dimethlythiazol-2-yl]-2,5-diphenyltetrazolium bromide) and incubated for 4 hours at 37° C. The media was aspirated from the cells and 100 μL/well of acidified isopropanol (per liter: 900 mL isopropanol, 100 mL Triton X100, and 4 mL conc. HCl) was added. Plates were incubated for 15 minutes at room temperature with shaking, and an optical density (OD 540) reading at 540 nanometer (nm) was obtained. The optical density reading is proportional to the number of viable cells. The increase in the number of viable cells reflects the protective, antiviral activity of the compound. Assays comparing MTT staining in uninfected cells containing compound with uninfected cells in the absence of compound provide a measure of cellular toxicity.
The antiviral activity of compounds, designated as EC50, is presented as a concentration that produces 50% cell protection in the assay. […]

Compound: O=C(O)/C=C/C(=O)O [fumaric acid]
first pKa [1]: ~3

pEC50 ([2]; 96 h, HEp-2 cells, RSV Long strain, 4 days, MTT): 5.52
Compound: NC(=O)c1ncn([C@@H]2O[C@H](CO)[C@@H](O)[C@H]2O)n1 [Ribavirin]
cell protection ([2]; at 2.5 μg/mL (corresponding to 10.2 μM)): 100%

Compound: O=c1n(Cc2nc3ccccc3n2CCCCO)c2cnccc2n1C1CC1 [compound II]
pEC50 ([2]; HEp-2, 96 h): 7.22

Compound: O=C(O)/C=C\C(=O)O [maleic acid]
first pKa [1]: ~2
